# In patent US9512075B2 (OKAYAMA UNIVERSITY, priority 2012, dated 2016):
# Read-outs that look alike come from different tables or passages of the source.
# How the values were obtained:
# Type in all cases: cell-based
# [1] = system: Staphylococcus aureus Smith strain; test: MIC for Staphylococcus aureus Smith strain; settings: read-out: MIC Straphyrococcus aureus Smith
# [2] = system: Staphylococcus aureus 209P strain; test: MIC for Staphylococcus aureus 209P strain; settings: Staphylococcus aureus, read-out: MIC Straphyrococcus aureus 209P
# [3] = system: Staphylococcus aureus MRSA No. 17 (methicillin-resistant Staphylococcus aureus: MRSA); test: MIC for Staphylococcus aureus MRSA No. 17; settings: read-out: MIC Straphyrococcus aureus MRSA No. 17 (MRSA)
# [4] = system: Enterococcus faecalis 5038 strain; test: MIC for Enterococcus faecalis 5038 strain; settings: read-out: MIC Enterococcus faecalis 5038
# [5] = system: Enterococcus faecalis NCTC12201 strain (vancomycin-resistant Enterococcus: VRE); test: MIC for Enterococcus faecalis NCTC12201 strain (VRE); settings: read-out: MIC Enterococcus faecalis NCTC 12201 (VRE)
# [6] = system: Clostridium difficile JCM1296 strain; test: microbe, parasite or virus in culture; settings: for MIC: Clostridioides difficile, JCM1296, read-out: MIC Clostridium difficile JCM1296
# [7] = system: Clostridium perfringens PB6K strain; test: microbe, parasite or virus in culture; settings: CD medium, 37° C. overnight, 10% CO2-containing anaerobic conditions; for MIC: Clostridium perfringens, PB6KSTRAIN, read-out: MIC Clostridium perfringens PB6K, PB6K strain
# [8] = system: Escherichia coli K-12 strain; test: MIC for Escherichia coli K-12 strain; settings: Escherichia coli, K12STRAIN, read-out: MIC Escherichia coli K12
# [9] = system: Escherichia coli BE1121 strain; test: MIC for Escherichia coli BE1121 strain; settings: Escherichia coli, BE1121STRAIN, read-out: MIC Escherichia coli BE1121
# [10] = Smith strain, regular bouillon medium, 37° C. overnight, turbidity
# [11] = 209P strain, regular bouillon medium, 37° C. overnight, turbidity
# [12] = MRSA No. 17, regular bouillon medium, 37° C. overnight, turbidity
# [13] = 5038 strain, Heart Infusion Broth medium, 37° C. overnight, turbidity
# [14] = NCTC12201 strain (VRE), Heart Infusion Broth medium, 37° C. overnight, turbidity
# [15] = K-12 strain, regular bouillon medium, 37° C. overnight, turbidity
# [16] = BE1121 strain, regular bouillon medium, 37° C. overnight, turbidity
Compound,"MIC [1, 10] [µg/mL]","MIC [2, 11] [µg/mL]","MIC [3, 12] [µg/mL]","MIC [4, 13] [µg/mL]","MIC [5, 14] [µg/mL]",MIC [6] [µg/mL],MIC [7] [µg/mL],"MIC [8, 15] [µg/mL]","MIC [9, 16] [µg/mL]",MIC ([2]; 209P) [µg/mL],MIC [8] [µg/mL],MIC [9] [µg/mL],MIC Clostridium difficile JCM1296 [6] [µg/mL],MIC Clostridium perfringens PB6K ([7]; PB6K strain) [µg/mL],MIC [1] [µg/mL],MIC ([3]; MRSA) [µg/mL],MIC ([4]; 5038STRAIN) [µg/mL],MIC [5] [µg/mL]
"CCCCCCCCCCOCC(O)=C1C(=O)N(C(C)=O)c2ccccc21 [A013, N-acetyl-3-decyloxyacetyl-2-oxyindole]",256,256,256,64,32,0.25,0.5,256,256,,,,,,,,,
"CC(=O)N1C(=O)C(=C(O)CCCCCCCCCBr)c2ccccc21 [A024, N-acetyl-3-(10-bromodecanoyl)-2-oxyindole]",4,,16,0.5,1,0.5,0.5,,,16,128,16,,,,,,
"CCCCCCCCCC(=O)NCC(O)=C1C(=O)N(C(=O)OC(C)(C)C)c2ccccc21 [A011, N-Boc-3-decanoylaminoacetyl-2-oxyindole]",128,256,256,256,256,2,2,128,128,,,,,,,,,
"CCCCCCCCCC(=O)N1C(=O)/C(=C(\O)COC)c2cc(F)ccc21 [A050, N-decanoyl-3-methoxyacetyl-5-fluoro-2-oxyindole]",0.5,256,256,0.5,0.5,0.25,0.5,256,128,,,,,,,,,
"CCCCCCCCCCOCC(O)=C1C(=O)N(C(=O)OC(C)(C)C)c2cc(Cl)ccc21 [A012, N-Boc-3-decyloxyacetyl-6-chloro-2-oxyindole]",256,256,256,256,256,,,256,256,,,,32,32,,,,
"CCCCCCCCCCOCC(O)=C1C(=O)N(C(=O)Nc2ccc(OC)cc2)c2ccc(F)cc21 [A047, N-(4-methoxyphenylaminocarbonyl)-3-decyloxyacetyl-5-fluoro-2-oxyindole]",8,128,128,4,16,1,0.25,128,128,,,,,,,,,
"CCCCCCCCCC(O)=C1C(=O)Nc2ccccc21 [A001, 3-decanoyl-2-oxyindole]",32,16,32,16,16,,,256,256,,,,,,,,,
"CCCCCCCCCC(=O)N[C@@H](C)C(=O)c1c(O)c2ccccc2oc1=O [B011, 3-(2-decanoylaminopropionyl)-4-hydroxycoumarin]",256,256,256,256,256,2,1,256,256,,,,,,,,,
"CCCCCCCCCC(O)=C1C(=O)N(C)c2ccccc21 [A007, N-methyl-3-decanoyl-2-oxyindole]",8,,128,32,15,2,8,,,32,256,256,,,,,,
"O=C(NCC(=O)c1c(O)c2ccccc2oc1=O)c1ccccc1 [B013, 3-benzoylaminoacetyl-4-hydroxycoumarin]",256,256,256,256,256,128,128,256,256,,,,,,,,,
"CCCCCCCCCC(=O)c1c(O)c2cc(Cl)ccc2oc1=O [B003, 6-chloro-3-decanoyl-4-hydroxycoumarin]",,2,,,,,0.25,256,256,,,,,,0.5,2,0.5,0.25
